Laboratory results taken from patent US11643417B2, “Tetrahydrobenzofurodiazepinone compound and pharmaceutical use thereof” (priority 2020, dated 2023).

Target: human Pim-1 (Homo sapiens (Human), UniProt P11309)
Test: biochemical
Assay type: biochemical
Conditions: Ki converted from IC50; purified human Pim-1, Pim2tide substrate, ADP-Glo; read-out: hPim1 Ki
Experimental: The human Pim-1 inhibitory activity of the test compounds was evaluated as follows.
(1) Purification of Human Pim-1
DNA fragment in which a His-Tag sequence and a translation termination sequence are added to the 3′-end of human Pim-1 translation sequence was amplified by PCR (Polymerase Chain Reaction), using human Pim-1 gene-inserted plasmid DNA (Kazusa DNA Laboratory, model number FXC11400) as a template. The amplified DNA fragment was fused with pGEx-6P-1 (GE Healthcare Japan, model number 27-4597-1) digested with BamHI and EcoRI using In-Fusion HD Cloning Kit (Takara Bio, model number 639649). […] The base sequence of Pim-1 cloned into vector was determined by Dye Terminator method using BigDye Terminator v3.1 Cycle Sequencing Kit (Applied Biosystems, model number 4337456). […] Escherichia coli BL21 (DE3) (Merck KGaA, model number 69449-4) transformed with human Pim-1-expressed plasmid DNA was cultured in 2×YT medium (Becton Dickinson, model number 2404020) at 30° C., until the optical concentration at 620 nm (OD620) reached 0.6, and then cultured overnight at 20° C. in the presence of 0.5 mmol/L isopropyl b-D-1-thiogalactopyranoside. After the completion of so the culture, the cells were collected and suspended in Homogenate Buffer (50 mmol/L Tris-HCl (pH 7.5), 500 mmol/L NaCl, 1% Tween20, complete, EDTA-free (Roche, model number 1873580)), and the suspended cells were lysed by passing through a microfluidizer M-110H (Mizuho Kogyo Co., Ltd.). The lysate was centrifuged at 10,100×g for 10 minutes, 4° C., and the supernatant was filtered through MILLEX-HV Filter (0.45 μm) (Millipore, SLHV033RS) to remove the cell residues. The filtrate was loaded onto complete His-Tag Purification Resin (Roche Diagnostics, model number 05 893 682 0.01). The column was washed with Equilibration Buffer-1 (50 mmol/L Tris-HCl (pH 7.5), 500 mmol/L NaCl, 1% Tween 20) containing 5 mmol/L Imidazole, followed by Equilibration Buffer-1 containing 50 mmol/L Imidazole, the human Pim-1 to which GST-Tag derived from pGEx-6P-1 was eluted with Equilibration Buffer-1 containing 150 mmol/L imidazole. […] The protease reaction was carried out by stirring overnight at 4° C., and the human Pim-1 in which the GST-Tag sequence was cleaved was eluted. The eluate was loaded onto a gel filtration column (Superdex-200 […] (GE Healthcare, model number 17-5175-01)) equilibrated with Equilibration Buffer-3 (50 mmol/L Tris-HCl (pH 7.5), 500 mmol/L NaCl, 0.05% Tween20, 0.5 mmol/L EDTA, 2 mmol/L DTT, 10% Glycerol), and eluted. The eluate was used as a human Pim-1 purified fraction.
The protein concentration of the human Pim-1 purified fraction was measured with Pierce 660 nm Protein Assay Reagent (Thermo Fisher Scientific, model number 22660). The purified fraction was rapidly frozen in liquid nitrogen, and then stored at −80° C. The His-Tag-added human Pim-1 was detected by Western blotting using a mouse anti-His monoclonal antibody (WAKO, model number 011-23091).
(2) Evaluation of Human Pim-1 Inhibitory Activity
The calculation of the Pim-1 inhibitory activity of the compound was performed using the following solution according to the protocol attached to ADP-Glo Kinase Assay (cat. V9102, Promega). The purified enzyme of human Pim-1 described above was used.
(i) Preparation of Solution
The kinase buffer solution (50 mmol/L HEPES (pH 7.5), 5 mmol/L MgCl2, 1 mmol/L DTT, 0.05% BSA) was prepared by dissolving HEPES (Jena Bioscience), MgCl2 (Sigma-Aldrich), DTT (Sigma-Aldrich) and BSA (Sigma-Aldrich) in purified water.
The ATP solution (288 μmol/L) was prepared by dissolving 100 mmol/L ATP (Promega) in the kinase buffer solution.

Chain of human Pim-1 (P11309 whole entry): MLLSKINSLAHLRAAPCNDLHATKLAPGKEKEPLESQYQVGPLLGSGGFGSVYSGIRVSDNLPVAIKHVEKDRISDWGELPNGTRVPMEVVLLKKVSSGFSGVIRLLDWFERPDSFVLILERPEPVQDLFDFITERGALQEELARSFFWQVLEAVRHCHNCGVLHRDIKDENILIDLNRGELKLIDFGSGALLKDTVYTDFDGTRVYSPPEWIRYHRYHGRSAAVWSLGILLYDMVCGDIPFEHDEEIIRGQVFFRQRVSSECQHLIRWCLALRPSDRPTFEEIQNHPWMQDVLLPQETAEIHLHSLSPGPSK

| SMILES | Ki |
| --- | --- |
| N#CC1(CCO)CCOC(CCN2CCNC(=O)c3oc4ccc(C(F)(F)F)cc4c32)C1 (racemic) [Example 7] | 0.468 nM |
| COC(C1CC(O)(CO)C1)C1(CN2CCNC(=O)c3oc4ccc(C(F)(F)F)cc4c32)CC1 (racemic) [Example 22] | 0.848 nM |
| COC(C1CC(O)(CO)C1)C1(CN2CCNC(=O)c3oc4ccc(C(F)(F)F)cc4c32)CC1 (racemic) [Example 23] | 0.805 nM |
| O=C1NCCN(CC(F)(F)C2CC3(CCO2)OCCO3)c2c1oc1ccc(C(F)(F)F)cc21 (racemic) [Example 46] | 0.0715 nM |
| O=C1NCCN(CC(F)(F)C2CC3(CCC2(F)F)OCCO3)c2c1oc1ccc(C(F)(F)F)cc21 (racemic) [Example 55] | 0.115 nM |
| O=C1NCCN(CC(F)(F)C2CC3(CCO2)COC3)c2c1oc1ccc(C(F)(F)F)cc21 (racemic) [Example 57] | 0.0448 nM |
| O=C1CCC(F)(F)C(C(F)(F)CN2CCNC(=O)c3oc4ccc(C(F)(F)F)cc4c32)C1 (racemic) [Example 61] | 0.0391 nM |
| O=C1NCCN(CCC2COCCO2)c2c1oc1c(F)cc(C(F)(F)F)cc21 (racemic) [Example 76] | 0.399 nM |
| CC1COCC(CCN2CCNC(=O)c3oc4ccc(C(F)(F)F)cc4c32)O1 (racemic) [Example 114] | 0.708 nM |
| CC1COCC(CCN2CCNC(=O)c3oc4ccc(C(F)(F)F)cc4c32)O1 (racemic) [Example 115] | 0.672 nM |
| N#CC[C@H]1CO[C@H](CCN2CCNC(=O)c3oc4ccc(C(F)(F)F)cc4c32)CO1 (racemic) [Example 129] | 1.18 nM |
| CS(=O)(=O)C[C@H]1CO[C@H](CCN2CCNC(=O)c3oc4ccc(C(F)(F)F)cc4c32)CO1 (racemic) [Example 130] | 1.16 nM |
| O=C1NCCN(CCC2COCC(CO)O2)c2c1oc1ccc(C(F)(F)F)cc21 (racemic) [Example 132] | 3.59 nM |
| O=C1NCCN(CCC2COCC(CO)O2)c2c1oc1ccc(C(F)(F)F)cc21 (racemic) [Example 133] | 1.58 nM |
| O=C1NCCN(CCC2COCC(CF)O2)c2c1oc1ccc(C(F)(F)F)cc21 (racemic) [Example 134] | 0.753 nM |
| O=C1NCCN(CCC2COCC(CF)O2)c2c1oc1ccc(C(F)(F)F)cc21 (racemic) [Example 135] | 0.66 nM |
| CS(=O)(=O)CC1COCC(CCN2CCNC(=O)c3oc4ccc(C(F)(F)F)cc4c32)O1 (racemic) [Example 136] | 16 nM |
| CS(=O)(=O)CC1COCC(CCN2CCNC(=O)c3oc4ccc(C(F)(F)F)cc4c32)O1 (racemic) [Example 137] | 5.36 nM |
| N#CCC1COCC(CCN2CCNC(=O)c3oc4ccc(C(F)(F)F)cc4c32)O1 (racemic) [Example 139] | 3.69 nM |
| N#CCC1COCC(CCN2CCNC(=O)c3oc4ccc(C(F)(F)F)cc4c32)O1 (racemic) [Example 140] | 5.8 nM |
| CS(=O)(=O)C[C@H]1CO[C@@H](CCN2CCNC(=O)c3oc4ccc(C(F)(F)F)cc4c32)CO1 (racemic) [Example 141] | 10.3 nM |
| N#CC[C@H]1CO[C@@H](CCN2CCNC(=O)c3oc4ccc(C(F)(F)F)cc4c32)CO1 (racemic) [Example 142] | 4.4 nM |
| O=C1NCCN(CCC2CC3(CC(CO)C3)C2)c2c1oc1ccc(C(F)(F)F)cc21 (racemic) [Example 143] | 0.947 nM |

Same assay, conditions: hPim1 Ki (nM), Ki converted from IC50; purified human Pim-1, Pim2tide substrate, ADP-Glo

| SMILES | Ki |
| --- | --- |
| CC1(O)CCOC(C(F)(F)CN2CCNC(=O)c3oc4ccc(C(F)(F)F)cc4c32)C1 (racemic) [Example 11, 1-(2,2-difluoro-2-(4-hydroxy-4-methyltetrahydro-2H-pyran-2-yl)ethyl)-9-(trifluoromethyl)-1,2,3,4-tetrahydro-5H-benzofuro[3,2-e][1,4]diazepin-5-one] | 0.0596 nM |
| CC1(O)CCOC(C(F)(F)CN2CCNC(=O)c3oc4ccc(C(F)(F)F)cc4c32)C1 (racemic) [Example 12, 1-(2,2-difluoro-2-(4-hydroxy-4-methyltetrahydro-2H-pyran-2-yl)ethyl)-9-(trifluoromethyl)-1,2,3,4-tetrahydro-5H-benzofuro[3,2-e][1,4]diazepin-5-one] | 0.0388 nM |
| O=C1NCCN(CC(F)(F)C2COCCO2)c2c1oc1ccc(C(F)(F)F)cc21 (racemic) [Example 56] | 0.0723 nM |
